In patent US20240408064A1, “RAS INHIBITORS, COMPOSITIONS AND METHODS OF USE THEREOF” (GENETOLEAD INC., priority 2021, published 2024):
Where two headings read alike, the source gives them in different places.

What was measured:
KRAS^G12D-GDP [1] = target: T1, KRAS^G12D-GDP (Homo sapiens (Human), UniProt P01116, G12D); experiment: 19F DLB score, KRAS^G12D-GDP; assay type: binding; design: scale not given here
Protocol: (§1) Since the fragment library was curated using phosphate buffer, 25 mM sodium phosphate pH 7.4, 150 mM NaCl, 5 mM MgCl2, 1 mM TCEP-d16, 10% D2O Fresh TCEP was used for experiments. Screening was performed using ^1H-decoupled 1D ^19F experiment Bruker experiment (zgfhigqn.2) with 64 scans and a relaxation delay of 5 seconds. 50 μM HRas^G12V and 240 μM of each fragment in pools (mixtures) were used.
(§2) Hit confirmation was performed using the same ^19F experiment as the screen. Ligand-observed 1D ^1H, protein-observed 1D ^1H, ^1H T2-CPMG as well as Saturation Transfer Difference (STD) experiments were also run on the same samples. Ligand-observed 1D ^1H was run using the standard Bruker sequence with excitation sculpting (zgesgp) with a relaxation delay of 10 seconds and 16 scans per spectrum. Protein-observed 1D ^1H was performed using the same sequence with a relaxation delay of 1 second and 256 scans in order to increase the signal-to-noise of the protein resonances, while keeping the experimental time relatively short. The ^1H T2-CPMG experiment employed a modified version of the Bruker 1D ^1H zgesgp experiment with the addition of a CPMG pulse train after the first 90° excitation pulse. Total duration for each spin echo was fixed at 1 ms (τ=500 μs), while the number of echoes in the pulse train was varied according to the total time (T). The number of scans for each spectrum was 4 and eight delay times were run on each sample, ranging from 1 ms to 800 ms.
(§3) The activity of compounds of the invention regarding KRAS^G12D-GDP was measured in the same as in Example 80. The results obtained with the compounds in the various assays described above are depicted in Table 23.

HRas^G12V [2] = target: T2, HRas^G12V (Homo sapiens (Human), UniProt P01112, G12V); experiment: 19F DLB (ligand-observed 19F NMR) score; assay type: binding; design: scale not given here
Summary of the method: (§4)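 Fragments were pooled at 240 μM each with 50 μM HRas G12V in 25 mM sodium phosphate pH 7.4, 150 mM NaCl, 5 mM MgCl2, 1 mM TCEP-d16, 10% D2O, and screened by 1H-decoupled 1D 19F NMR at 600 MHz (64 scans, 5 s relaxation delay). T2-CPMG data were collected with 1 ms echoes and eight delays from 1 to 800 ms.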

HRas^G12V [3] = target: T2, HRas^G12V; experiment: 19F T2-CPMG NMR score; assay type: binding
Summary of the method: as §4

HRas^G12V [4] = target: T2, HRas^G12V; experiment: Dissociation constant by NMR (1H/15N Fast-HSQC, 1H 1D protein-observed); assay type: binding
Protocol: All NMR experiments were collected using 3 mm NMR tubes on a 600 MHz Bruker Avance III spectrometer equipped with a QCI helium cryoprobe and a SampleJet sample changer. The buffer used for NMR experiments was 25 mM sodium phosphate pH 7.4, 150 mM NaCl, 5 mM MgCl2, 1 mM TCEP-d16, 10% D2O. Data were processed using Bruker TopSpin.
^1H/^15N Fast-HSQC experiments (Mori et al., Journal of Magnetic Resonance, Series B, Volume 108, Issue 1, July 1995, Pages 94-98) were recorded at a protein concentration of 50-100 μM.
Dissociation constants were obtained by monitoring changes in chemical shifts as a function of ligand concentration. The changes in chemical shifts (d) were calculated according to the following equation (Williamson, Progress in Nuclear Magnetic Resonance Spectroscopy, Volume 73, August 2013, Pages 1-16): d=√(1/2[δ_H^2+[…]]), Where δ are the changes in chemical shift in ppm for ^1H and ^15N and the correction factor (α) was set at 0.15.
^1H 1D protein-observed experiments were recorded with 15-50 μM protein. The standard Bruker 1D ^1H sequence with excitation sculpting (zgesgp) was employed. A relaxation delay of 1 s was employed in order to use 256 scans while still keeping experimental time fairly short. Changes in protein chemical shift or peak intensity in the methyl region were monitored against compound concentration.

KRAS^G12D-GDP [5] = target: T1, KRAS^G12D-GDP; experiment: 19F T2-CPMG score, KRAS^G12D-GDP; assay type: binding
Protocol: as §1, §2, §3

HRas^G12V [6] = target: T2, HRas^G12V; experiment: Overall binding/activity in the various assays (NMR consensus binding)
Summary of the method: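 Fragments (240 µM each, pooled) screened against 50 µM HRas^G12V in 25 mM sodium phosphate pH 7.4, 150 mM NaCl, 5 mM MgCl2, 1 mM TCEP-d16 by 1H-decoupled 1D 19F NMR. Hits confirmed by ligand- and protein-observed 1D 1H, STD and T2-CPMG (aggregation check); consensus binding ranked, with 15N HSQC for sites and Kd.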

[7] = Solubility and free-state aggregation in the NMR screen; assay type: physicochemical; settings: NMR buffer
From the text: Fragment screening has been performed using a library containing 461 fragments that has been designed using cheminformatics parameters such as Rule of Three and PAINS analysis. All fragments have been curated by ^1H and ^19F NMR for structure verification, purity, solubility in phosphate buffer and lack of apparent aggregation under these conditions. Fragments were pooled according to chemical compatibility resulting in 31 different pools to increase screening throughput. The library was provided by NMX Research in Solutions Inc.
Because of its power to probe the intrinsically weak interactions (Kd) between targets and low-molecular weight fragments, NMR fragment-based lead discovery (FBLD) is a very useful biophysical method in early stage drug discovery, especially for challenging target proteins; including those with shallow binding pockets. Since FBLD screens are performed using low-molecular weight compounds (fragments) with lower structural complexity, the same chemical space can be covered using a smaller number of drug-like fragments versus use of large libraries of higher-molecular weight lead-like compounds as in high throughput screening (HTS) campaigns. Therefore, FBLD has a much higher hit rate than HTS using only several hundred to several thousand compounds in comparison with approximately 1 million compounds for HTS. Also, the small size of the compounds screened in FBLD means a better chance to fully match the interactions with small or transient pockets within the target protein, where these less tractable pockets cannot be accessed with standard classical HTS methods. […] We expect this methodology to be more advantageous than classical HTS methods for expediting the time from hit to lead (H2L) and allows for rapid access to high quality leads with lower attrition rates in subsequent lead optimization (LO) campaigns toward pre-clinical candidate selection. FBLD screening by NMR involves a “consensus binding” approach where several distinct NMR experiments (DLB, STD, CPMG) are applied along with a free-state aggregation detection method (T2-CPMG) to rank the compounds for their affinity to the receptor (HRAS in this case) whilst simultaneously monitoring the solution behavior and critical quality attributes of each compound. The latter helps to eliminate artifact binders which are highly problematic. We performed a fluorine screen involving 461 compounds that were derived from a highly curated fragment library. Moreover, two-dimensional ^15N HSQC NMR was also used to validate ligand-binding sites on the target protein. In addition, we employed protein-detected biophysical measurements were employed to determine fragment binding affinities to the target protein (Kd) by HSQC NMR. From the results, we picked the most interesting hit were picked, FS-1255 that was identified based on consensus binding evidence from all NMR detection methods, and based the lack of free-state aggregation by T2-CPMG. We chose to prioritize on FS-1255 which was the most promising fragment hit.

T1 sequence (P01116-2 other isoform, or with tags, fused parts or gaps G12D): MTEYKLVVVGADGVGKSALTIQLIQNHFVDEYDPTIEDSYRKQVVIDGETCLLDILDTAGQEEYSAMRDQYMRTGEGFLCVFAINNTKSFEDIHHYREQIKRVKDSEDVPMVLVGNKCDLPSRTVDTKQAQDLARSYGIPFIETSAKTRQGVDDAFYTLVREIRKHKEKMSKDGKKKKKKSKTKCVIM

| SMILES | 19F T2-CPMG Score (HRas^G12V [3]) | Kd (HRas^G12V [4]; HRas^G12V, read-out: NMR Kd) [mM] | 19F DLB Score (HRas^G12V [2]) | Binding to HRas^G12V (in words) (HRas^G12V [6]) | Solution behaviour in the NMR screen [7] | also measured |
| --- | --- | --- | --- | --- | --- | --- |
| CN(C)S(=O)(=O)NCCc1c[nH]c2cc(F)ccc12 [Compound 10004, reference compound] | 19.49 | 6.16 to 6.4 | – | – | – | 19F DLB Score (KRAS^G12D-GDP [1]): 2.06; 19F DLB Score (HRas^G12V [2]; @ 50 uM): 5.34 @ 50 uM; 19F T2-CPMG Score (KRAS^G12D-GDP [5]): 9.41 |
| CS(=O)(=O)NCCc1c[nH]c2cc(F)ccc12 [Compound 10006, reference compound] | 19.5 | 10 | 3.24 | – | – | – |
| CC(=O)Nc1cccc(NC(=O)Cc2c[nH]c3cc(F)ccc23)c1 [Compound 10014] | 38.3 | 2.32 | 3.12 | – | – | 19F DLB Score (KRAS^G12D-GDP [1]): 2.46; Activity ranking on HRas^G12V (in words) (HRas^G12V [6]): More active; 19F T2-CPMG Score (KRAS^G12D-GDP [5]): >LOQ |
| O=C(Cc1c[nH]c2cc(F)ccc12)Nc1ccccc1 [Compound 10021, 2-(6-fluoro-1H-indol-3-yl)-N-phenyl acetamide] | 38.83 | – | – | – | – | 19F DLB Score (KRAS^G12D-GDP [1]): 2.62; 19F DLB Score (HRas^G12V [2]; @ 50 uM): 8.73 @ 50 uM; 19F T2-CPMG Score (KRAS^G12D-GDP [5]): >LOQ |
| COCCNC(=O)Cc1c[nH]c2cc(F)ccc12 [Compound 10025] | 1.68 | 6 | 1.22 | low or no binding | – | – |
| CC(CCO)NC(=O)Cc1c[nH]c2cc(F)ccc12 (stereo not shown) [Compound 10026] | 3.17 | 10 | 1.23 | low or no binding | – | – |
| O=C(Cc1c[nH]c2cc(F)ccc12)NC1CCOCC1 [Compound 10027] | 3.77 | 7.4 | 1.42 | low or no binding | – | – |
| O=C(Cc1c[nH]c2ncc(F)cc12)N1CCC1 [Compound 10035, 1-(azetidin-1-yl)-2-(5-fluoro-1H-pyrrolo[2,3-b]pyridin-3-yl)ethan-1-one] | −0.11 | > 10 | 0.91 | – | – | Activity ranking on HRas^G12V (in words) (HRas^G12V [6]): More active |
| CC(=O)N[C@H]1CCN(C(=O)Cc2c[nH]c3cc(F)ccc23)C1 [Compound 10041] | 3.92 | 5.2 to 9 | 1.86 | – | – | – |
| COc1cc(Cl)ccc1NC(=O)Cc1c[nH]c2cc(F)ccc12 [Compound 10051] | – | – | – | low or no binding | Not soluble | – |
| O=C(Cc1c[nH]c2cc(F)ccc12)N1CCCCC1 [Compound 10053] | 39.43 | 1.53 | 5.85 | – | – | 19F DLB Score (KRAS^G12D-GDP [1]): 4.89; Activity ranking on HRas^G12V (in words) (HRas^G12V [6]): More active; 19F T2-CPMG Score (KRAS^G12D-GDP [5]): >LOQ |
| N#Cc1ccc(NC(=O)Cc2c[nH]c3cc(F)ccc23)cc1 [Compound 10054] | – | – | – | low or no binding | Not soluble | – |
| COc1ccc(NC(=O)Cc2c[nH]c3cc(F)ccc23)cc1Cl [Compound 10055] | – | – | – | low or no binding | Not soluble | – |
| COc1ccc(NC(=O)Cc2c[nH]c3cc(F)ccc23)cc1F [Compound 10056] | – | – | – | low or no binding | Not soluble | – |
| COc1ccc(NC(=O)Cc2c[nH]c3cc(F)ccc23)cc1C [Compound 10057] | – | – | – | low or no binding | Not soluble | – |
| COC(=O)c1cc(NC(=O)Cc2c[nH]c3cc(F)ccc23)cc(OC)c1 [Compound 10060] | – | – | – | low or no binding | Not soluble | – |
| Cc1ccc(Cl)cc1NC(=O)Cc1c[nH]c2cc(F)ccc12 [Compound 10061] | – | – | – | low or no binding | Not soluble | – |
| CC(C(=O)N1CCC1)c1c[nH]c2cc(F)ccc12 (stereo not shown) [Compound 10066, 1-(azetidin-1-yl)-2-(6-fluoro-1H-indol-3-yl) propan-1-one] | 21.34 | 3.51 to 4 | 2.94 | – | – | 19F DLB Score (KRAS^G12D-GDP [1]): 2.22; Activity ranking on HRas^G12V (in words) (HRas^G12V [6]): More active; 19F T2-CPMG Score (KRAS^G12D-GDP [5]): 9.14 |
| O=C1CCN(C(=O)Cc2c[nH]c3cc(F)ccc23)CC1 [Compound 10106] | 13.41 | – | 2.25 | – | – | Kd (HRas^G12V [4]): 6.43 mM |
| NC(=O)C1CN(C(=O)Cc2c[nH]c3cc(F)ccc23)C1 [Compound 10114, 1-(2-(6-fluoro-1H-indol-3-yl)acetyl)azetidine-3-carboxamide] | 15.2 | 11.1 | 2.14 | – | – | – |
| CN(C)C[C@@H]1CN(C(=O)Cc2c[nH]c3cc(F)ccc23)CCO1 [Compound 10159] | 19.26 | 2.95 to 3.43 | 3.93 | – | – | Activity ranking on HRas^G12V (in words) (HRas^G12V [6]): More active |
| CN(C)C[C@H]1CN(C(=O)Cc2c[nH]c3cc(F)ccc23)CCO1 [Compound 10160, (S)-1-(2-((dimethylamino)methyl)morpholino)-2-(6-fluoro-1H-indol-3-yl) ethan-1-one] | – | 1.28 | 6.24 | – | – | – |
| CCOC(=O)Cc1c[nH]c2cc(F)ccc12 [Compound 11003, ethyl 2-(6-fluoro-1H-indol-3-yl) acetate] | 11.18 | – | 2.23 | – | – | 19F DLB Score (KRAS^G12D-GDP [1]): 2.20; 19F T2-CPMG Score (KRAS^G12D-GDP [5]): 14.19 |
